Here are results for one molecule from ChEMBL document CHEMBL2073806, “Effect of PCB-126 on intracellular accumulation and transepithelial transport of vinblastine in LLC-PK1 and its transformant cells expressing human P-glycoprotein” (J Vet Med Sci, 2004).

The data set concerns the target ATP-dependent translocase ABCB1 (Homo sapiens, UniProt P08183). As to the kind of experiment: TP_TRANSPORTER: transepithelial transport (basal to apical) in LLC-MDR1 cells. It counts as functional, cell-based. As to conditions: pig.

ATP-dependent translocase ABCB1, sequence (P08183 whole entry): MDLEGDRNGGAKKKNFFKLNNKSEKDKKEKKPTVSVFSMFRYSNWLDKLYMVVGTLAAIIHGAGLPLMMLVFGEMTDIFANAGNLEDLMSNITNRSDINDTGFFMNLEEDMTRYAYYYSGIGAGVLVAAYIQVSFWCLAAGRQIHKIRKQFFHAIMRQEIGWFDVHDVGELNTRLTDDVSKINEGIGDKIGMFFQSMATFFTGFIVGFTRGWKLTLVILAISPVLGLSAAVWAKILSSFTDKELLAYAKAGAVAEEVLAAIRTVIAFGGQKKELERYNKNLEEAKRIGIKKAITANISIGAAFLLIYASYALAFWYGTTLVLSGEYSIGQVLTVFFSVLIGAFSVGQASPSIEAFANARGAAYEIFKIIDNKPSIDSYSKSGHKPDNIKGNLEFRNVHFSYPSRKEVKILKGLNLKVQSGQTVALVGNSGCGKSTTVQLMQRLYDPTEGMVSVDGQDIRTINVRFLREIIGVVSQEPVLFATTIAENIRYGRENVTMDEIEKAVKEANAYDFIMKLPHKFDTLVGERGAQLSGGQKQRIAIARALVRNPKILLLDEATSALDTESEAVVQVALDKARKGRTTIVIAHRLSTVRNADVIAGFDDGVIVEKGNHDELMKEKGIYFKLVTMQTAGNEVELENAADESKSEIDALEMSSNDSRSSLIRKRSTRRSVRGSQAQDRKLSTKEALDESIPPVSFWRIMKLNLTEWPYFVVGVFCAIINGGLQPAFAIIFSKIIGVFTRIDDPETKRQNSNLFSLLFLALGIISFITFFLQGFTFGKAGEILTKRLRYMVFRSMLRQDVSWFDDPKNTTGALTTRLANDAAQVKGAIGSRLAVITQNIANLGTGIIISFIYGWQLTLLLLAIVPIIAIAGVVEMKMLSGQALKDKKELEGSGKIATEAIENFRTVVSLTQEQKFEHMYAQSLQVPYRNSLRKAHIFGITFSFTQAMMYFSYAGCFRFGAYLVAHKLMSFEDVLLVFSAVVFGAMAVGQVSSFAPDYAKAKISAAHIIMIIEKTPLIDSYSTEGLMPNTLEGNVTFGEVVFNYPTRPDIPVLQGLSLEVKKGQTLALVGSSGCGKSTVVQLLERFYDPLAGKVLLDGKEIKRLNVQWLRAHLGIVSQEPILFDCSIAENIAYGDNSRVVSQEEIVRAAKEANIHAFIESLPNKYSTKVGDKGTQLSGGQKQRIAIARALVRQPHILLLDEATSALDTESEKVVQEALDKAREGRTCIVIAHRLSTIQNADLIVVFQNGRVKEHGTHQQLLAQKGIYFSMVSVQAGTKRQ

Regarding `Clc1ccc(-c2cc(Cl)c(Cl)c(Cl)c2)cc1Cl` [POLYCHLORINATED BIPHENYL 126], the Activity entry was “substrate [+]”.
